Data published in patent US20260250337A1, “HYBRID ANTIMICROBIAL PEPTIDES” (UNIVERSIDADE FEDERAL DO ABC, priority 2023, published 2026).
“Also recorded” adds a separate entry of the source. No end group written: not given here.

Key:
[1] = test system: M. luteus A270; assay: Liquid growth inhibition assay, MIC; type: cell-based, Micrococcus luteus; details: 37° C., 18 h
Method: (§1) Initially, the antimicrobial activity was determined by liquid growth inhibition assays, as previously described by Pedron et al.^62. Briefly, Peptone Broth and Potato Dextrose Broth (Invitrogen) were used for antibacterial and antifungal assays, respectively. Two-fold serial dilutions of peptides (0.09-50 μmol L^−1) and microorganisms (Serratia marcescens ATCC 4112, Enterobacter cloacae β-12, Micrococcus luteus A270, Bacillus megaterium ATCC 10778, Bacillus subtilis ATCC 6633, Candida albicans MDM8, and Candida tropicalis IOC 4560) were incubated at 37° C. for 18 h (for bacteria) or 24 h (for fungi), and microbial growth was assessed by absorbance measurements at 595 nm. Experiments were performed in three biological repeats.

[2] = test system: S. epidermidis ATCC 12228; assay: Liquid growth inhibition assay, MIC; type: cell-based; details: 37° C., 18 h
[3] = test system: B. megaterium ATCC 10778; assay: Liquid growth inhibition assay, MIC; type: cell-based, Bacillus megaterium; details: 37° C., 18 h
Method: as §1

[4] = test system: S. marcescens ATCC 4112; assay: Liquid growth inhibition assay, MIC; type: cell-based, Serratia marcescens; details: 37° C., 18 h
Method: as §1

[5] = test system: E. cloacae β-12; assay: Liquid growth inhibition assay, MIC; type: cell-based, Enterobacter cloacae; details: 37° C., 18 h
Method: as §1

[6] = test system: C. albicans MDM8; assay: Liquid growth inhibition assay, MIC (antifungal); type: cell-based, Candida albicans; details: 37° C., 24 h
Method: as §1

[7] = test system: C. tropicalis IOC 4560; assay: Liquid growth inhibition assay, MIC (antifungal); type: cell-based, Candida tropicalis; details: 37° C., 24 h
Method: as §1

[8] = test system: human erythrocytes; assay: Hemolytic activity assay; type: cell-based; details: for Hemolytic activity, concentration of peptide needed to kill 10% of red blood cells / MHC: human erythrocytes, 1 h; for MHC: room temperature, concentration with approximately 0% of hemolytic activity; for hemolytic activity: 0.1 to 100 μmol L^−1
Method: Method. Assays against freshly collected human erythrocytes were performed following protocols described by Pedron et al. 62. Briefly, peptide aliquots at concentrations ranging from 0.1 to 100 μmol L−1 were incubated with a suspension of erythrocytes at room temperature for 1 h. The samples were then centrifuged, and the absorbance of the supernatant was measured at 405 nm. The MHC (maximal non-hemolytic concentration) was determined as the maximal concentration at which 100% of the erythrocytes were viable. The surfactant SDS and PBS buffer were used as positive88, 89 and negative controls, respectively. Sodium heparin was used as an anticoagulant when collecting human blood. Three biological repeats were performed.

[9] = test system: MCF-7 human breast cancer cells; assay: Anticancer activity, MTT assay; type: cell-based; details: MTT
Method: The anticancer activity assays were performed using MCF-10A human breast epithelial cells and MCF-7 mammary cancer cells as previously described by Pedron et al. 86. Briefly, the day before treatment, the cells were incubated at 37° C. and 5% CO2 for 24 h. The cells were treated with peptides ranging from 12.5 to 100 μmol L^−1 (MCF10-A cells) and 0.8 to 100 μmol L^−1 (MCF-7 cells) for 4 h and 24 h at 37° C., and cell viability was measured using 3-(4,5-Dimethylthiazol-2-yl)-2,5-diphenyltetrazolium bromide (MTT) assays 87. Three independent replicates were performed in each case.

[10] = test system: A. baumannii ATCC19606; assay: Broth microdilution MIC, ESKAPE pathogens; type: cell-based; details: LB, 37° C., 24 h
Method: (§2) Method. The minimal inhibitory concentration (MIC) against the ESKAPE pathogens was determined using the broth microdilution method^81, 82 in Luria-Bertani (LB) medium. The MIC value was defined as the lowest concentration of peptide at which no microbial growth was observed. A. baumannii ATCC19606, E. coli ATCC11775, E. coli AIC221, E. coli AIC222, K. pneumoniae ATCC13883, S. aureus ATCC12600 P. aeruginosa PAO1, and P. aeruginosa PA14 were incubated on agar plates, and after 24 h, three isolated colonies were inoculated to 5 mL of Luria-Bertani (LB) broth and maintained at 37° C. overnight with shaking. Peptides were then added to 96-well polystyrene microtiter plates at concentrations ranging from 0 to 128 μmol L^−1, and 5×10^5 CFU mL^−1 of each bacterium was inoculated in each well. The plates were incubated at 37° C. for 24 h. Bacterial growth was measured using a microplate reader at 610 nm. Three independent replicates were performed.

[11] = test system: E. coli AIC221; assay: Broth microdilution MIC, ESKAPE pathogens; type: cell-based; details: LB, 37° C., 24 h
Method: as §2

[12] = test system: E. coli AIC222; assay: Broth microdilution MIC, ESKAPE pathogens; type: cell-based; details: LB, 37° C., 24 h
Method: as §2

[13] = test system: E. coli ATCC11775; assay: Broth microdilution MIC, ESKAPE pathogens; type: cell-based; details: LB, 37° C., 24 h
Method: as §2

[14] = test system: K. pneumoniae ATCC13883; assay: Broth microdilution MIC, ESKAPE pathogens; type: cell-based; details: LB, 37° C., 24 h
Method: as §2

[15] = test system: P. aeruginosa PA14; assay: Broth microdilution MIC, ESKAPE pathogens; type: cell-based; details: LB, 37° C., 24 h
Method: as §2

[16] = test system: P. aeruginosa PAO1; assay: Broth microdilution MIC, ESKAPE pathogens; type: cell-based; details: LB, 37° C., 24 h
Method: as §2

[17] = test system: S. aureus ATCC12600; assay: Broth microdilution MIC, ESKAPE pathogens; type: cell-based; details: LB, 37° C., 24 h
Method: as §2

[18] = Resistance to degradation in fetal bovine serum; type: in vitro ADME; details: for remaining at 0.5 h: read-out: remaining peptide, 30 min; for remaining at 1 h: read-out: remaining peptide, 1 h; for remaining at 2 h: read-out: remaining peptide, 2 h
Method: The resistance to proteolytic degradation of the hybrid peptides was assessed by exposing them for 6 h to serum peptidases in a fetal bovine serum solution^68, 69 (FIG. 5a and Table S4). The peptide degradation kinetics were calculated by integrating the peak area of the peak in relation to the peptide at the beginning of the experiment (time=0) and comparing it to the integrated peak area relative to the peptides after exposure to the enzymes at time points: 0.5, 1, 2, 4, and 6 h (FIG. 5a and Table S4). […] However, AV was resistant to degradation against proteases, with almost 40% peptide content remaining after 4 h of exposure (FIG. 5a and Table S4). […] VP was almost entirely degraded after 30 min (22% of peptide remaining). […] D-amino acid substitutions have been used as alternatives to prevent the degradation of AMPs. For example, Qiu et. al. described a protonectin analog with a D-Lys residue in position 10 as an alternative to protonectin; this analog is not degraded and has higher antimicrobial activity against bacteria and fungi than the original peptide.
Methods. Stability assays were performed following the protocol described by Torres et al.^71. Briefly, a peptide solution was added to GIBCO fetal bovine serum diluted to 25% in water and kept at 37° C. The degradation kinetics were monitored by liquid chromatography and the percentage of peptide remaining was calculated by integrating the peptide peak area. The experiments were performed as three independent replicates, and aliquots were taken at 0, 0.5, 1, 2, 4, and 6 h.

[19] = test system: bacterial strains; assay: Antimicrobial activity over the panel of strains; type: cell-based; details: range over strains tested
Method: as §1, §2

[20] = bovine, fetal bovine serum, 25% in water, fetal bovine serum 25% in water, 37° C., 30 min
[21] = bovine, fetal bovine serum, 25% in water, fetal bovine serum 25% in water, 37° C.

Row | Substance | MIC M. luteus A270 [1] | MIC S. epidermidis ATCC 12228 [2] | MIC B. megaterium ATCC 10778 [3] | MIC S. marcescens ATCC 4112 [4] | MIC E. cloacae β-12 [5] | MIC C. albicans MDM8 [6] | MIC C. tropicalis IOC 4560 [7] | Hemolytic activity, concentration of peptide needed to kill 10% of red blood cells [8] | MHC [8] | MIC A. baumannii ATCC19606 [10] | MIC E. coli AIC221 [11] | MIC E. coli AIC222 [12] | MIC E. coli ATCC11775 [13] | MIC K. pneumoniae ATCC13883 [14] | MIC P. aeruginosa PA14 [15] | MIC P. aeruginosa PAO1 [16] | MIC S. aureus ATCC12600 [17] | resistance to degradation ([18]; fetal bovine serum) | remaining at 0.5 h [18, 20] | remaining at 1 h [18, 21] | other results
1 | ILGTILGLLKGL-NH2 [Protonectin, reference compound] | 3.1 µM | 25 µM | 3.1 µM | 6.3 µM | 25 µM | 12.5 µM | 12.5 µM | 12.5 µmol/L | 12.5 µmol/L | 16 µM | 16 µM | 8 µM | 16 µM | 64 µM | 128 µM | 128 µM | 8 µM | quickly degraded |  |  | MCF-7 4 h LD50 ([9]; MCF-7, 4 h): 25 µmol/L; MCF-7 24 h LD50 ([9]; MCF-7, 24 h): 25 µmol/L
2 | H-GLLKRIKTLL-NH2 [Anoplin, reference compound] | 1.6 µM | 6.3 µM | 0.8 µM | 6.3 µM | 3.1 µM | 1.6 µM | 1.6 µM | 50 µmol/L | 50 µmol/L |  |  |  |  |  |  |  |  |  | ~20% | ~20% | remaining at 2 h [18, 21]: ~10%
3 | FLGTLWGGAKGVF-NH2 [VP] | >50 µM | >50 µM | >50 µM | >50 µM | >50 µM | >50 µM | >50 µM | 100 µmol/L | >100 µmol/L | 128 µM | 128 µM | 128 µM | 128 µM | 128 µM | 128 µM | 128 µM | 128 µM |  | 22% | < 20% | hemolytic activity [8]: minimal hemolytic activity; remaining at 2 h [18, 21]: < 10%; remaining peptide, 30 min ([18]; fetal bovine serum 25% in water, 37° C., 30 min): ~20%
4 | FLGSLWRKAGTVF-NH2 [VD] | 25 µM | >50 µM | 6.3 µM | 12.5 µM | >50 µM | 25 µM | 6.3 µM |  | >100 µmol/L |  |  |  |  |  |  |  |  | the greatest resistance to proteolytic degradation | ~10% |  | hemolytic activity [8]: minimal hemolytic activity; also recorded: no hemolytic activity was detected; remaining at 6 h ([18]; bovine, fetal bovine serum, 25% in water, fetal bovine serum 25% in water, 37° C., 6 h, read-out: remaining peptide, 6 h): ~50%; MIC range of the peptide over the strains [19]: 6.3 to 25 µM
